In experiment [1] the target is Dual specificity protein kinase CLK1 (Homo sapiens, UniProt P49759). The following applies: at 10 µM.
For experiment [2], the target named is Cyclin-dependent kinase 8 (Homo sapiens, UniProt P49336). The following applies: at 10 µM.
For experiment [3], the target named is Proto-oncogene tyrosine-protein kinase ROS (Homo sapiens) (UniProt P08922). The experiment is described as follows: Selectivity interaction (KinomeScan (DiscoverX)) EUB0000092b ROS1. The following applies: at 10 µM.
Proto-oncogene tyrosine-protein kinase ROS (Homo sapiens), sequence (P08922 whole entry): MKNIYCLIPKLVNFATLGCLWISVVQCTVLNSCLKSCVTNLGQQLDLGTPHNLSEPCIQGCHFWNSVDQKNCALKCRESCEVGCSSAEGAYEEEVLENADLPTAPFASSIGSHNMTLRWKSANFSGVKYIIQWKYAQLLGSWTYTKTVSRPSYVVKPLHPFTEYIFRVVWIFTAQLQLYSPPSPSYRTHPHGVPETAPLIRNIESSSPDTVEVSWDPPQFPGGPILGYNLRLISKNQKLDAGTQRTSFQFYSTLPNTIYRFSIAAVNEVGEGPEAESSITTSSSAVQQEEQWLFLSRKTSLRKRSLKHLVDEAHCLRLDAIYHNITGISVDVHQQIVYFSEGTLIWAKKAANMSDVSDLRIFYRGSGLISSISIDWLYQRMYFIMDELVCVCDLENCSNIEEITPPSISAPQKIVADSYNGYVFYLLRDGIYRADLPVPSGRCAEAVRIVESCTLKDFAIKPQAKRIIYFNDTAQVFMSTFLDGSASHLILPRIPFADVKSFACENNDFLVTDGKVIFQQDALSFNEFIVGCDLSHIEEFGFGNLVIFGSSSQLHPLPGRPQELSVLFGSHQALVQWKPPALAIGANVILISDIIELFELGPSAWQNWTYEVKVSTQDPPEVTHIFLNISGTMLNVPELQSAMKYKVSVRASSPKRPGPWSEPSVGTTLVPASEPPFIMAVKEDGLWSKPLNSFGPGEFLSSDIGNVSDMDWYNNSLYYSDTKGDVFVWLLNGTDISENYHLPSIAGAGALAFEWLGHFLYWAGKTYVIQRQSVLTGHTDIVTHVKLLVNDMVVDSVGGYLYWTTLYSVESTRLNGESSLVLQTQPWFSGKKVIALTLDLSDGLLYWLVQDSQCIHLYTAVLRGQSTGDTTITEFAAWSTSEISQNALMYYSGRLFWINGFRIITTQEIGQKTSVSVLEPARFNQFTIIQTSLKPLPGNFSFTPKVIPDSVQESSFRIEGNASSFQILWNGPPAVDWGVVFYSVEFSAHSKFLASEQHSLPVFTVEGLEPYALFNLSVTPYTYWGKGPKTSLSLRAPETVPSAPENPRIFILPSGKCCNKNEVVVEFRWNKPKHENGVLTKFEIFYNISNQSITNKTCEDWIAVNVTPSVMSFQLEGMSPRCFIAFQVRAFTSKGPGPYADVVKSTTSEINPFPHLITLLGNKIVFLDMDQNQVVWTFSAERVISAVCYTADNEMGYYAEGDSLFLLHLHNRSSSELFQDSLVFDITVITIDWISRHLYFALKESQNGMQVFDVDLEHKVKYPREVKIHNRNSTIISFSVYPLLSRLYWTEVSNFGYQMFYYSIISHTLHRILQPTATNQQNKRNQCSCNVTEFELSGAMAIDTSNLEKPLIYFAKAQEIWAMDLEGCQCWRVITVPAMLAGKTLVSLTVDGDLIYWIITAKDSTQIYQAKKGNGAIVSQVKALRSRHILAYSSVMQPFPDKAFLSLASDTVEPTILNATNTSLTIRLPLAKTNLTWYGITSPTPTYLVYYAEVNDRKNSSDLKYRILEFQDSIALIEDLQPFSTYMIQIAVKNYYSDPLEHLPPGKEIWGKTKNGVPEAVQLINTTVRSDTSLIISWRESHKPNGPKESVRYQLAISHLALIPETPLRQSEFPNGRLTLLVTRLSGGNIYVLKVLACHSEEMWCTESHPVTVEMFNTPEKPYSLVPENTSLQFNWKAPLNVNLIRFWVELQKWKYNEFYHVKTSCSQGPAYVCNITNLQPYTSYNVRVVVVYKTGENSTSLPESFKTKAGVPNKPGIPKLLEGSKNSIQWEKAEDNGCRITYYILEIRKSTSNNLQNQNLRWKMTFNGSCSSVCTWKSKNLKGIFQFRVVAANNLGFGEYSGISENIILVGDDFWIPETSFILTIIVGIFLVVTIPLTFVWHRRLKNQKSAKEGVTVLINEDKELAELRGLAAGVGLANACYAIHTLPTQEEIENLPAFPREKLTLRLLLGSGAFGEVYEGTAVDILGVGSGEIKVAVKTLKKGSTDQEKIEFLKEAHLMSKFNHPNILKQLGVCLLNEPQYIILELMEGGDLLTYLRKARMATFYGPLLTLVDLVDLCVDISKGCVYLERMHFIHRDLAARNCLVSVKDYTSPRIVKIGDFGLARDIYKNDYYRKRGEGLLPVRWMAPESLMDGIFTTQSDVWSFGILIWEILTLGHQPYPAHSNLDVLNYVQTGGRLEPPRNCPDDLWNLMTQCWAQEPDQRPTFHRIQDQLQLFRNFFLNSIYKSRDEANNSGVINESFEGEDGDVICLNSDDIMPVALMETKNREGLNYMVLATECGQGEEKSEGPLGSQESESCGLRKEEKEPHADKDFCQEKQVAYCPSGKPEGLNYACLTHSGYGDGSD
Experiment [4] concerns the target Receptor tyrosine-protein kinase erbB-2 (Homo sapiens, UniProt P04626). Nature of the experiment: Selectivity interaction (KinomeScan (DiscoverX)) EUB0000092b ERBB2. The following applies: at 10 µM.
Experiment [5] deals with T1, Histone-lysine N-methyltransferase NSD3 (Homo sapiens) (UniProt Q9BZ95).
T1 sequence (whole entry): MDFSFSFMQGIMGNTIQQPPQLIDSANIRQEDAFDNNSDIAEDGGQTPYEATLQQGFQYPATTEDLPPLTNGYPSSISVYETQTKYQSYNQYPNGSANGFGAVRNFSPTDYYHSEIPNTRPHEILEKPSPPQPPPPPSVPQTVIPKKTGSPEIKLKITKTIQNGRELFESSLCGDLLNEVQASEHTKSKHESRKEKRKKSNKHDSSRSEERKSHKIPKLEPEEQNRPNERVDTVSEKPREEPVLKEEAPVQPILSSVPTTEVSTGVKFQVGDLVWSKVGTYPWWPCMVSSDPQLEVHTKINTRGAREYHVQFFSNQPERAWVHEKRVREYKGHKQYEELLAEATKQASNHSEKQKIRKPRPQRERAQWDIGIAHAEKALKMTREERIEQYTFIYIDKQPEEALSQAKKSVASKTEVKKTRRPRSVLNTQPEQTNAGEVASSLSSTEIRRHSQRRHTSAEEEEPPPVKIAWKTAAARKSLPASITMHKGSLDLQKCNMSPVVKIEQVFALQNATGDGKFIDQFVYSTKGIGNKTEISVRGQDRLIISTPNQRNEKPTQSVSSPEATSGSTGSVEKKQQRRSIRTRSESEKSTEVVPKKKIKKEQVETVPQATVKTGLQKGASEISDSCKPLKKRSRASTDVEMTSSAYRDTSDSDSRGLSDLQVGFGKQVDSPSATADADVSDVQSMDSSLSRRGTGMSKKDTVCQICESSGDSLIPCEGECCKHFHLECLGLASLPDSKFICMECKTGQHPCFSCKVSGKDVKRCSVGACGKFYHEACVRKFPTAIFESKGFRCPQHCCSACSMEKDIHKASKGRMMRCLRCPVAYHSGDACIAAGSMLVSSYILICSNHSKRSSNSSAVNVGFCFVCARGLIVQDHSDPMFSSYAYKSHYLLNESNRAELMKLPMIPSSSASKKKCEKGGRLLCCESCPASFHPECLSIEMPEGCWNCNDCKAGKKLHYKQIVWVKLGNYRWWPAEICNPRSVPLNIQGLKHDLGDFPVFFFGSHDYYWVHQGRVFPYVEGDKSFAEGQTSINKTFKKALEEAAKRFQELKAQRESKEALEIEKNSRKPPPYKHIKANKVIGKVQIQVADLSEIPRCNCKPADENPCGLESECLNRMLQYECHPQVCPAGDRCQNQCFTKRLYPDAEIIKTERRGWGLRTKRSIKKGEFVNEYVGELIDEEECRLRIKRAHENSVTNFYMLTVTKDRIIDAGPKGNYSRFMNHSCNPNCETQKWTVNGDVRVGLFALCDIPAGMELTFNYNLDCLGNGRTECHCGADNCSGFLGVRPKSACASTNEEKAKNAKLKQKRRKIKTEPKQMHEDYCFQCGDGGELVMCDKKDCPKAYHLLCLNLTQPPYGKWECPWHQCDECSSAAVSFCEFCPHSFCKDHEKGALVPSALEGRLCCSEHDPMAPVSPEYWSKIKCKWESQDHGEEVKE
Nature of the experiment: Selectivity interaction (Methyltransferase screen (Scintillation proximity assays)) EUB0000255b NSD3.

Experiment [6] addresses RAC-beta serine/threonine-protein kinase (Homo sapiens) (UniProt P31751). The experiment is described as follows: Selectivity interaction (Kinase screening (Nanosyn)) EUB0000604a AKT2.
Experiment [7] has as its target RAC-gamma serine/threonine-protein kinase (Homo sapiens, UniProt Q9Y243). Nature of the experiment: Selectivity interaction (KinomeScan (DiscoverX)) EUB0000666a AKT3. Conditions: at 10 µM.
The target of experiment [8] is T2, Serine/threonine-protein kinase LATS1 (Homo sapiens) (UniProt O95835).
T2 sequence (whole entry): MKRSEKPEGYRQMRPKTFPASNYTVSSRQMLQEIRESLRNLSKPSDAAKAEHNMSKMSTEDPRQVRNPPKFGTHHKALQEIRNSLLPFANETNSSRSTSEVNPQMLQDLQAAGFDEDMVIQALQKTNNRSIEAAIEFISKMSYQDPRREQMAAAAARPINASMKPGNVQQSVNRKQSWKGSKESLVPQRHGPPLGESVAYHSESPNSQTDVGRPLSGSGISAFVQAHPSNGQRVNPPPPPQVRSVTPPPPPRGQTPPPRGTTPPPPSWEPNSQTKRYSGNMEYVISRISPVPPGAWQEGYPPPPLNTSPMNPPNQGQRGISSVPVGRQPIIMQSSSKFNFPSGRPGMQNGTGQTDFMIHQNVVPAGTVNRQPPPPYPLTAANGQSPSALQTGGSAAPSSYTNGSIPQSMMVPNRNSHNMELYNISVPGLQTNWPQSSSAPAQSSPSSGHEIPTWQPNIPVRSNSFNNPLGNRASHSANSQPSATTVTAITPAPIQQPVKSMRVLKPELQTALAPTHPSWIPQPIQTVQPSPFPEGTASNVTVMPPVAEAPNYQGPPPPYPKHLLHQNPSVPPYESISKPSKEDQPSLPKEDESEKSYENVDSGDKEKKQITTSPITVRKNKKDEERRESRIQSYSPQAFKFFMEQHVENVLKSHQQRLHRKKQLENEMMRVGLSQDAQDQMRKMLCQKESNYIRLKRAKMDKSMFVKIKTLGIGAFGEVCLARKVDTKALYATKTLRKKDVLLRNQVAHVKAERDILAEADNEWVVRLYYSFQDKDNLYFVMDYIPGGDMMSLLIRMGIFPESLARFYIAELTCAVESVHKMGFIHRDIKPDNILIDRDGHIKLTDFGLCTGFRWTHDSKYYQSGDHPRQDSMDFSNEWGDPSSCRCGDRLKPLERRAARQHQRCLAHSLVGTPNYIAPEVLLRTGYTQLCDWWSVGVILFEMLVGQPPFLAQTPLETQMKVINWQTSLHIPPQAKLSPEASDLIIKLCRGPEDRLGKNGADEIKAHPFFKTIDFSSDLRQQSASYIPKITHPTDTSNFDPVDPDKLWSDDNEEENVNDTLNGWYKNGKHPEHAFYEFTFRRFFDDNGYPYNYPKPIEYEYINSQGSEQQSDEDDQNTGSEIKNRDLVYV
The experiment is described as follows: Selectivity interaction (ActivX KiNativ screen (kinase selectivity in THP-1 cell lysates)) EUB0000639a LATS1. The following applies: lysate, at 0.04 µM. The experiment is classed as subcellular.

RAC-beta serine/threonine-protein kinase (Homo sapiens), sequence (P31751 whole entry): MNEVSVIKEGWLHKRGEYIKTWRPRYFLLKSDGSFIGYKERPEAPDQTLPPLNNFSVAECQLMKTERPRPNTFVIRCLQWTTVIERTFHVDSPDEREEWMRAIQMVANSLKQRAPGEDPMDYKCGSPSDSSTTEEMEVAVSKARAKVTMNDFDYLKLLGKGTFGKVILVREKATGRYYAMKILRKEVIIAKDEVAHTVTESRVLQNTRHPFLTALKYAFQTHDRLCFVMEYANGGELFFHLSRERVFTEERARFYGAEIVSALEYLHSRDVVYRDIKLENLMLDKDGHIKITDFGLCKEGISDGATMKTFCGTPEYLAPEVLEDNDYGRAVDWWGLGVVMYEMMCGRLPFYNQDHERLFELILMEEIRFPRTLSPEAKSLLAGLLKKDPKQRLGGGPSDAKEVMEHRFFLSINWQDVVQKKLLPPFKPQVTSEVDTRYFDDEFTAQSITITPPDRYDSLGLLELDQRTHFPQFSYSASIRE
RAC-gamma serine/threonine-protein kinase, sequence (Q9Y243 whole entry): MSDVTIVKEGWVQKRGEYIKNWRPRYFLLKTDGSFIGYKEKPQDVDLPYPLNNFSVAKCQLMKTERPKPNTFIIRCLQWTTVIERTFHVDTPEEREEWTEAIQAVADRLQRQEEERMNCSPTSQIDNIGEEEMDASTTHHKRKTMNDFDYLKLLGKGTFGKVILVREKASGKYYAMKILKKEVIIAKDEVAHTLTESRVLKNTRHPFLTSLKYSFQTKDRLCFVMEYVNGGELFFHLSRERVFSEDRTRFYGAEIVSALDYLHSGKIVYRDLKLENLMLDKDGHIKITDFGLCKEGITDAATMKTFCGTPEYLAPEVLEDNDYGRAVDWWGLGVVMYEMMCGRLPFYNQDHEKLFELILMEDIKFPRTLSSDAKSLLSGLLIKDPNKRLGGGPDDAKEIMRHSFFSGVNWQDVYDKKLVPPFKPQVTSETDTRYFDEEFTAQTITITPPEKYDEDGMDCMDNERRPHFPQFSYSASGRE
Receptor tyrosine-protein kinase erbB-2, sequence (P04626 whole entry): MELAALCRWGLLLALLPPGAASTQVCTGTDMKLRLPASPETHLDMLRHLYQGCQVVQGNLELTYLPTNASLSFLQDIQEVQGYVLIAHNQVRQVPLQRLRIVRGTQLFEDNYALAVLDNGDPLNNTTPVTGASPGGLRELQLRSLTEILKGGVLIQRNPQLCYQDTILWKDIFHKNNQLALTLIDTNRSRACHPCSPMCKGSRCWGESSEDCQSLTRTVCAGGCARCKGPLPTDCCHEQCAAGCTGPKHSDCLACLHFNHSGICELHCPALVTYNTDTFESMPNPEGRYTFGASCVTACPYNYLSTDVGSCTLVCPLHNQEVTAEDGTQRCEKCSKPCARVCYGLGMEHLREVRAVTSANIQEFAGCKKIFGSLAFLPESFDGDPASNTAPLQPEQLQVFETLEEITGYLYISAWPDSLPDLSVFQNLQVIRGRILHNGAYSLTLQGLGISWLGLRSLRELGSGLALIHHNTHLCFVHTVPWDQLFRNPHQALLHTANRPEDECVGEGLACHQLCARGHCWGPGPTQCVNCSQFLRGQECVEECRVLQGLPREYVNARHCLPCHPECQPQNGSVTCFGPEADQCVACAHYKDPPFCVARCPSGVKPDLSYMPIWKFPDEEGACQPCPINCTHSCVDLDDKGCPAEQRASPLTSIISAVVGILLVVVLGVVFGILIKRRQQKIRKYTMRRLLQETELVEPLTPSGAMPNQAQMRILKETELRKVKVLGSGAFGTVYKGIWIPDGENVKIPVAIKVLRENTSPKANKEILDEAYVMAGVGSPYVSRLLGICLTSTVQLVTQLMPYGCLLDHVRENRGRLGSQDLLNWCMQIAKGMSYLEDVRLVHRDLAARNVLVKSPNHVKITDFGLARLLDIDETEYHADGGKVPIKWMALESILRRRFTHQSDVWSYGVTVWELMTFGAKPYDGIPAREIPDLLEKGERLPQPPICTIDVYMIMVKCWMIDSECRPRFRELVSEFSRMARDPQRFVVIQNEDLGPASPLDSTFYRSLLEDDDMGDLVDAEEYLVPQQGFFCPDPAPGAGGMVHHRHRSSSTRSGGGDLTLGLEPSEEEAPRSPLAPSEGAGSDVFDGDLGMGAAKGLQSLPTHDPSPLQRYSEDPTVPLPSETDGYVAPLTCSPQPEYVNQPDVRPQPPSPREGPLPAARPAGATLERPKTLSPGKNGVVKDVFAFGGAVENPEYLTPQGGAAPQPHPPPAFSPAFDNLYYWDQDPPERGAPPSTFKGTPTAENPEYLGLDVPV
Dual specificity protein kinase CLK1, sequence (P49759 whole entry, looked up): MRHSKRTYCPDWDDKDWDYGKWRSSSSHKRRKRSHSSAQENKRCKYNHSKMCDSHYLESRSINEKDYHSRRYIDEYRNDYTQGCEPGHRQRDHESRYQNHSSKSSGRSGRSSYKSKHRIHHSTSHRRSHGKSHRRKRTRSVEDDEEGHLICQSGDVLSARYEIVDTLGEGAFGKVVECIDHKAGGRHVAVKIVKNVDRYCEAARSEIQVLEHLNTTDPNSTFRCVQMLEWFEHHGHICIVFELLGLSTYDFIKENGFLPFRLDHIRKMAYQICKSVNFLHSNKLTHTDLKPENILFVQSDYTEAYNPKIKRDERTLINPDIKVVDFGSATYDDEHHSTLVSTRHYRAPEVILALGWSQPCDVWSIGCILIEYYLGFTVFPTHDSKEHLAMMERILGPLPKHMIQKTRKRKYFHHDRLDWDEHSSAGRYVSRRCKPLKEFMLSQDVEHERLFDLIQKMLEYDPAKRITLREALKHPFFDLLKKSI

Compound `Cc1cc([C@@H](C)Nc2ccccc2C(=O)O)c2nc(N3CCOCC3)cc(=O)n2c1` [AZD-6482] displayed a % of control in experiment [1] of 74%. Compound `CCN(CC)CCCCNc1ncc2cc(-c3cc(OC)cc(OC)c3)c(NC(=O)NC(C)(C)C)nc2n1` gave a % of control in experiment [2] of 100%. For `CCC(=O)N1CCN(c2ccc(-n3c(=O)ccc4cnc5ccc(-c6cnc7ccccc7c6)cc5c43)cc2C(F)(F)F)CC1`, the values for the % of control in experiment [3] and in experiment [4] were 71% and 91%, respectively. In the case of `COCCN1CCC(c2cc(CN(C)C(=O)c3cccc(Oc4ccccc4)c3)ccn2)CC1`, the % activity in experiment [5] (at 1 µM) was > 95%; in experiment [5] (at 10 µM), > 90%. On to `Cc1cnc(Nc2ccc(F)cc2Cl)nc1-c1c[nH]c(C(=O)N[C@H](CO)c2cccc(Cl)c2)c1`, for which the % of inhibition in experiment [6] is 0%. As to `O=C(NOC[C@H](O)CO)c1ccc(F)c(F)c1Nc1ccc(I)cc1F`, the % of control in experiment [7] worked out at 89%. Regarding `CC[C@@H]1[C@H](F)C(=O)N[C@@H]1COc1nccc2cc(C(N)=O)c(OC)cc12` [ZIMLOVISERTIB], the % of inhibition in experiment [8] is -18.5%.

The values are drawn from ChEMBL document CHEMBL5465560, “Selectivity Literature for EUbOPEN Chemogenomic Library” (2024).
